Converted amounts (≈) assume the structure as drawn. Like-named read-outs stand apart in the source and are kept apart here.
Key:
IFN-γ mRNA = IFN-γ mRNA expression in PHA stimulated PBMC (real-time RT-PCR); type: cell-based, human; settings: 5 μg/ml (highest concentration tested), PHA 5 μg/ml, 6 h
Description: (§1) For quantification of IDO and IFN-γ gene expression, RNA was extracted from PBMC using Trizol reagent (Invitrogen, Vienna, Austria) and reverse-transcribed using Superscript II reverse transcriptase (Invitrogen). Thirty cyles of PCR were performed using Sure Start Taq polymerase (Stratagene, La Jolla, Calif.). Levels of mRNA were quantified by real-time PCR with the ABI/PRISM 7700 sequence detection system (PE Applied Biosystems, Foster City, Calif.). 18sRNA was used as an invariant endogenous control. Specific primers and an internal fluorescent TaqMan probe were designed as follows: human 18sRNA primers, 5′-[…]-3′ (SEQ ID NO:1) and 5′-[…]-3′ (SEQ ID NO:2); 18sRNA probe, 5′-FAM-[…]-TAMRA-3′ (SEQ ID NO:3); human IDO primers, 5′-[…]-3′ (SEQ ID NO:4) and 5′-[…]-3′ (SEQ ID NO:5); IDO probe, 5′-FAM-[…]-TAMRA-3′ (SEQ ID NO:6); human IFN-γ primers, 5′[…]-3′ (SEQ ID NO:7), 5′-[…]-3′ (SEQ ID NO:8); IFN-γ probe, 5′-FAM-[…]-TAMRA-3′ (SEQ ID NO:9). Relative mRNA expression was calculated by dividing the relative quantity of each PCR product by the relative quantity of 18sRNA in each sample.

IDO mRNA = IDO mRNA expression in PHA stimulated PBMC (real-time RT-PCR); type: cell-based, human; settings: 5 μg/ml (highest concentration tested), PHA 5 μg/ml, 6 h
Description: as §1

[1] = system: human peripheral blood mononuclear cells (PBMC); test: Cell viability/proliferation of PBMC by MTT-test and trypan blue exclusion; type: cell-based; settings: 48 h, read-out: IC50 number of viable cells
Description: PBMC were isolated from whole blood obtained from healthy donors of whom written informed consent was obtained that their donated blood might be used for scientific purposes in case when it was not selected for transfusion. Separation of blood cells was performed using density centrifugation (Lymphoprep, Nycomed Pharma AS, Oslo, Norway). After isolation, PBMC were washed three times in phosphate buffered saline containing 0.2% 0.5 mM EDTA. Cells were maintained in RPMI 1640 supplemented with 10% heat-inactivated fetal calf serum (Biochrom, Berlin, Germany), 2 mM glutamine (Serva, Heidelberg, Germany) and 0.05 mg/ml gentamicin (Bio-Whittaker, Walkersville, Md.) in a humidified atmosphere containing 5% CO2 for 48 h. This procedure was observed earlier to yield best reproducible results when applied for testing of anti-inflammatory effects of compounds or drugs (Winkler et al., 2007, Int. Arch. Allergy Immunol. 142, 127-132). For each of the four experiments run in duplicates, PBMC were freshly prepared.
Consequently, the cells were stimulated or not with 10 μg/ml PHA or Con A for 48 h.
(§2) After incubation of PBMC with mitogens Con A or PHA (each 10 μg/ml) or treatment of THP-1 cells with LPS (1 μg/ml ), with or without cannabinoids for 48 h, cell viability was measured by MTT-test (3-[4,5-[…]]-2,5 diphenyl tetrazolium bromide) and by trypan blue exclusion method in three experiments performed in triplicates. No toxicity could be observed with solvent (0.1% EtOH; data not shown). IC50 were calculated by the CalcuSyn software from Biosoft, Cambridge, UK, using the original concept of Chou and Talalay (Chou and Talalay, 1984, Adv. Enzyme Regul. 22, 27-55).

CB1/CB2 = settings: reported; cited from earlier work
neopterin formation = test: Neopterin formation in PBMC supernatants (ELISA); type: cell-based; settings: Homo sapiens
[2] = system: indoleamine 2,3-dioxygenase (IDO); test: IDO activity (kyn/trp by HPLC) in PBMC supernatants; type: cell-based, human; settings: for IC50: Homo sapiens, PBMC; for effect of low doses on activity of the IDO enzyme: low doses 0.01-0.1 μg/ml, mitogen-stimulated PBMC
[3] = system: Myelomonocytic THP-1 cells; test: Cell viability of THP-1 cells by MTT-test and trypan blue exclusion; type: cell-based; settings: 0.1-10 μg/ml, unstimulated or LPS (1 μg/ml) stimulated THP-1 cells, 48 h
Description: Myelomonocytic THP-1 cells were obtained from European Collection of Cell Cultures (ECACC). […] Afterwards, cells were stimulated or not with 1 μg/ml LPS for 48 h.
as §2

[4] = system: indoleamine 2,3-dioxygenase (IDO); test: IDO activity (kyn/trp by HPLC) in THP-1 cells; type: cell-based; settings: for IC50: Homo sapiens, LPS (1 μg/ml) stimulated THP-1 cells, 48 h, read-out: IC50 decrease of kyn/trp (LPS-induced tryptophan degradation); for effect on tryptophan metabolism (kyn/trp): unstimulated THP-1 cells, CBD effect at the highest concentration tested
CB2 receptors = CB2 receptors (Homo sapiens, UniProt P34972); settings: reported; cited from earlier work
Chain of CB2 receptors (P34972 whole entry): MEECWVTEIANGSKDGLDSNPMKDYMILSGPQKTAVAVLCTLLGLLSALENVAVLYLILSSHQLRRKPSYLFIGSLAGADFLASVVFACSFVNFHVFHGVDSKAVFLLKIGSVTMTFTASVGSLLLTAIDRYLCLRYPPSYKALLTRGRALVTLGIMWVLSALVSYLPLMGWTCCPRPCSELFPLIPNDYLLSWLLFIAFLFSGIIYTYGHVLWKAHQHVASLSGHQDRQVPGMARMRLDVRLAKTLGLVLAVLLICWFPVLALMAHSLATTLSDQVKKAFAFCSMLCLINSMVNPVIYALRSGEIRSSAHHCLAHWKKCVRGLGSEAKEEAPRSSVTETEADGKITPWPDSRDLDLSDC

[5] = Con A-stimulated PBMC (10 μg/ml)
[6] = unstimulated PBMC, 0.01-20 μg/ml
[7] = 48 h, Con A-stimulated PBMC (10 μg/ml), 48 h, read-out: IC50 mitogen-induced neopterin production
[8] = 48 h, PHA-stimulated PBMC (10 μg/ml), 48 h, read-out: IC50 mitogen-induced neopterin production
[9] = unstimulated PBMC, read-out: IC50 release of neopterin
[10] = 48 h, Con A-stimulated PBMC (10 μg/ml), 48 h, read-out: IC50 mitogen-induced IDO activity (kyn/trp)
[11] = 48 h, PHA-stimulated PBMC (10 μg/ml), 48 h, read-out: IC50 mitogen-induced IDO activity (kyn/trp)
[12] = unstimulated PBMC, 0.01-10 μg/ml, read-out: IC50 decrease of kyn/trp

Row | SMILES | inhibition of mitogen-stimulated expression of IFN-γ mRNA (IFN-γ mRNA) | inhibition of mitogen-stimulated expression of IDO mRNA (IDO mRNA) | IC50 [1, 5] | IC50 ([1]; PHA-stimulated PBMC (10 μg/ml)) | IC50 [1, 6] | KB antagonism of CB1/CB2 agonists (CB1/CB2) | IC50 (neopterin formation; [7]) | IC50 (neopterin formation; [8]) | IC50 (neopterin formation; [9]) | IC50 [2, 10] | IC50 [2, 11] | IC50 [2, 12] | effect of low doses on activity of the IDO enzyme [2] | influence on viability of THP-1 cells [3] | IC50 [4] | effect on tryptophan metabolism (kyn/trp) [4] | affinity (CB2 receptors)
1 | C=C(C)[C@@H]1CCC(C)=C[C@H]1c1c(O)cc(CCCCC)cc1O [CBD, 2-[(1R,6R)-3-methyl-6-prop-1-en-2-yl-1-cyclohex-2-enyl]-5-pentylbenzene-1,3-diol] | almost completely, inhibit | almost completely, inhibit | 8.6 mg/L (≈ 27.3 µM) | 8.5 mg/L (≈ 27 µM) | 7.3 mg/L (≈ 23.2 µM) | low nanomolar range | 3.1 mg/L (≈ 9.86 µM) | 3.7 mg/L (≈ 11.8 µM) | 8.2 mg/L (≈ 26.1 µM) | 2.8 mg/L (≈ 8.9 µM) | 1.4 mg/L (≈ 4.45 µM) | 1.2 mg/L (≈ 3.82 µM) | modest but significant increase | did not show any influence | 0.3 mg/L (≈ 0.954 µM) | faint suppression of tryptophan degradation | micromolar range
2 | CCCCCc1cc(O)c2c(c1)OC(C)(C)[C@@H]1CCC(C)=C[C@@H]21 [THC, (6aR,10aR)-6,6,9-Trimethyl-3-pentyl-6a, 7,8,10a-tetrahydro-6H-benzo[c]chromen-1-ol] | almost completely, inhibit | almost completely, inhibit | 17.5 mg/L (≈ 55.6 µM) | 15.2 mg/L (≈ 48.3 µM) | 14.5 mg/L (≈ 46.1 µM) |  | 6.7 mg/L (≈ 21.3 µM) | 5.3 mg/L (≈ 16.9 µM) | 16.7 mg/L (≈ 53.1 µM) | 4.2 mg/L (≈ 13.4 µM) | 5.5 mg/L (≈ 17.5 µM) | 2.6 mg/L (≈ 8.27 µM) | modest but significant increase | did not show any influence | 0.6 mg/L (≈ 1.91 µM) | did not influence tryptophan metabolism | 

From patent US20110257256A1, “CANNABINOIDS FOR USE IN TREATING OR […] […] […]” (priority 2008, published 2011)
